From US4347319A, “Microbiological epoxidation process” (priority 1980, dated 1982)
Like-named read-outs stand apart in the source and are kept apart here.

Assays:
Format in all cases: cell-based
[1] = test system: Methylobacter chroococcum (CRL M6) NRRL B-11,214; experiment: Oxidation by washed cell suspensions of methane-grown cells
Method in brief: (§1)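 Methane-grown cells (30 °C, 2 days) washed and suspended in 0.15 M phosphate pH 7.0; 2 mg cells incubated at 30 °C, 300 rpm under substrate gas:oxygen 1:1 (10 μl for liquid substrates). Products sampled periodically and measured by flame-ionisation gas chromatography.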

[2] = test system: Methylobacterium organophilum (CRL 26 R6) NRRL B-11,222; experiment: as above
Method in brief: as §1

[3] = test system: Methylococcus capsulatus (CRL M1) NRRL B-11,219; experiment: as above
Method in brief: as §1

[4] = test system: Methylosinus trichosporium (CRL 15 PM1) NRRL B-11,202; experiment: as above
Method in brief: as §1

[5] = test system: Methylobacter bovis (CRL M1Y) NRRL B-11,216; experiment: as above
Method in brief: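 Products were quantified by gas chromatography (flame ionization) in headspace/liquid samples taken periodically from sealed vials. Each vial held 2 mg washed methane-grown cells in 0.15 M phosphate pH 7.0 under a 1:1 substrate/oxygen gas phase, shaken at 30 °C.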

[6] = test system: Methylomonas rosaceus (CRL M10P) NRRL B-11,212
Protocol: The pH of the nutrient medium was adjusted to 7.0 by the addition of acid or base and 50 ml samples of the nutrient medium were charged into a plurality of 300 ml shaker flasks. The shaker flasks were inoculated with an inoculating loop of cells from an agar plate containing homogeneous colonies of the microorganisms on the plate (the purity of the isolates was confirmed by microscopic examination. The isolates had been maintained on agar plates under an atmosphere of methane and air having a 1:1 v/v gas ratio which had been transferred evey two weeks. The gaseous phase of the inoculated flasks was then replaced with a gas mixture comprised of methane and air having a ratio of 1:1 on a v/v basis. The inoculated flasks were sealed air tight and were incubated on a rotary shaker of orbital radius 2.5 cm at 250 rpm and at 30° C. for two days until turbidity in the medium had developed.
The cells were harvested by centrifugation at 10,000×g. at 4° C. for 30 minutes. The cell pellet was washed twice with a 0.15 M phosphate buffer at a pH of 7.0 (containing 0.002 M MgCl2). The washed cells were then suspended in a 0.15 M phosphate buffer at pH 7.0.
A 0.5 ml sample of each washed cell suspension (2 mg cells) was put into 10 ml vials at 4° C. which were sealed with a rubber cap. The gaseous phase of the vials was removed with vacuum and then was replaced with a gas mixture of the oxidative substrate (e.g., methane) and oxygen at a 1:1 v/v ratio. The vials were then incubated at 30 ° C. on a rotary shaker at 300 rpm. Samples of product (3 μl) were withdrawn periodically with a microsyringe and the products were analyzed by gas chromatography (ionization flame detector column).
The newly discovered and isolated microorganism strains of the present invention were each grown aerobically in the presence of methane in the manner described above. The methane-grown microbial cells were then washed, recovered and put to use in oxidizing an oxidative substrate by the procedure described above except in the case of a liquid substrate 10 μl of the substrate were used.

[7] = methane-grown washed cells, 30° C., methane to methanol, alkene to 1,2-epoxide
[8] = methane-grown cells, propane to acetone, butane to 2-butanone
[9] = growth substrate Methane, n-alkane to secondary alcohol
[10] = methane-grown cell-suspension, pH 7.0, 3° C.
[11] = methane-grown cell-suspension, pH 7.0, 30° C.
[12] = cells grown on methane at 40° C., 30° C. reaction temperature

CCC(C)O (centres unmarked) [2-Butanol]
Conversion Rate to Ketone, 2 hrs. [1]: 1 μmole/2 mg protein | Conversion Rate to Ketone, 20 hrs. [1]: 3 μmole/2 mg protein | Conversion Rate to Ketone, 2 hrs. [2]: 10 μmole/2 mg protein | Conversion Rate to Ketone, 2 hrs. [3]: 18 μmole/2 mg protein | Conversion Rate to Ketone, 20 hrs. [3]: 50 μmole/2 mg protein | Conversion Rate to Ketone, 2 hrs. [4]: 20 μmole/2 mg protein | Conversion Rate to Ketone, 2 hrs. [5]: 20 μmole/2 mg protein

C=CC=C [Butadiene]
Oxidative Conversion Rates [1, 7]: 1.5 μmole/hr/mg protein | Oxidative Conversion Rates [2, 7]: 2.8 μmole/hr/mg protein | Oxidative Conversion Rates [3, 7]: 4.4 μmole/hr/mg protein | Oxidative Conversion Rates [4, 7]: 4.2 μmole/hr/mg protein | Oxidative Conversion Rates [6, 7]: 9.2 μmole/hr/mg protein | Oxidative Conversion Rates [5, 7]: 1.27 μmole/hr/mg protein

CCCC [Butane]
Conversion Rate to Ketone [1]: 1 μmoles/hr/mg Protein | Conversion Rate [2]: 0.80 μmoles/hr/^5 mg. protein | Conversion Rate to Ketone [2]: 2.0 μmoles/hr/mg Protein | Conversion Rate to Ketone [3]: 2 μmoles/hr/mg Protein | Conversion Rate to 1-Butanol ([3]; pH 7): 0.4 μmoles/hr./mg./protein | Conversion Rate to 2-Butanol ([3]; pH 7): 0.5 μmoles/hr./mg./protein | Conversion Rate to 2-Butanone ([3]; pH 7): 0.2 μmoles/hr./mg./protein | Conversion Rate to n-butanol ([3]; pH 7): 0.2 μmoles/hr./mg./protein | Conversion Rate [4]: 1.2 μmoles/hr/^5 mg. protein | Conversion Rate to Ketone [4]: 1.0 μmoles/hr/mg Protein | Conversion Rate to Ketone [5]: 3 μmoles/hr/mg Protein

C [Methane]
Oxidative Conversion Rates [1]: 0.8 | Oxidative Conversion Rates [2]: 0.7 | Oxidative Conversion Rates [3]: 2.5 | Conversion Rate to Methanol ([3]; pH 7): 2.5 μmoles/hr./mg./protein | Oxidative Conversion Rates [4]: 1.2 | Oxidative Conversion Rates [6]: 7.3 | Oxidative Conversion Rates [5]: 1.5

CCC [Propane]
Conversion Rate to Ketone [1, 8]: 2.0 μmoles/hr/mg Protein | Conversion Rate [2, 9]: 1.4 μmoles/hr/^5 mg. protein | Conversion Rate to Ketone [2, 8]: 3.0 μmoles/hr/mg Protein | Conversion Rate to 2-Propanol [3, 10]: 0.7 μmoles/hr./mg./protein | Conversion Rate to Acetone [3, 10]: 0.3 μmoles/hr./mg./protein | Conversion Rate to 1-Propanol [3, 11]: 0.5 μmoles/hr./mg./protein | Conversion Rate to Propanol [3, 11]: 0.2 μmoles/hr./mg./protein | Conversion Rate to Ketone [3, 8]: 4.0 μmoles/hr/mg Protein | Conversion Rate [4, 9]: 2.1 μmoles/hr/^5 mg. protein | Conversion Rate to Ketone [4, 8]: 1.6 μmoles/hr/mg Protein | Conversion Rate to Ketone [5, 8]: 5.0 μmoles/hr/mg Protein

C=CC [Propylene]
Oxidative Conversion Rates [1, 7]: 1.2 μmole/hr/mg protein | Oxidative Conversion Rates [2, 7]: 2.5 μmole/hr/mg protein | conversion rate propylene to propylene oxide [3, 12]: 7.88 μ mole/2 hr./mg. protein | Oxidative Conversion Rates [3, 7]: 5.5 μmole/hr/mg protein | Oxidative Conversion Rates [4, 7]: 4.5 μmole/hr/mg protein | Oxidative Conversion Rates [6]: 1.41 | conversion rate propylene to propylene oxide [5, 12]: 0.27 μ mole/2 hr./mg protein | Oxidative Conversion Rates [5, 7]: 1.5 μmole/hr/mg protein
